In article PMC12198282, “Application of a high-density microelectrode array assay using a 3D human iPSC-derived brain microphysiological system model for in vitro neurotoxicity screening of environmental compounds” (Archives of Toxicology, 2025):
Where two headings read alike, the source gives them in different places.

Columns and labels:
2D rat cortical cultures [1] = conditions: rNFA mc5 hit call; cytotoxicity LDH; cited from earlier work
2D rat cortical cultures [2] = conditions: cited from earlier work; for AC50: rNFA mc5
2D rat cortical cultures [3] = conditions: rNFA mc5 hit call; cytotoxicity AlamarBlue; cited from earlier work
[4] = test system: human iPSC-derived 3D BrainSpheres; experiment: BrainSphere MEA assay (HD-MEA, 13-day exposure, concentration-response); type: cell-based; conditions: for EC (benchmark response 1.349 SD): 312 h; for AC50: concentration at 50% maximal activity, Supplement 3 prints it also for curves with hit call 0; on hitc Mean.Spheroid.Burst.Duration: key: 1 (active); 0 (inactive); on hitc Mean.Spheroid.Burst.ISI: key: 1 (active); 0 (inactive); on hitc Mean.Spheroid.Burst.Peak.Firing.Rate: key: 1 (active); 0 (inactive); on hitc Mean.Spheroid.Firing.Rate: key: 1 (active); 0 (inactive); on hitc Mean.Spheroid.IBI: key: 1 (active); 0 (inactive); on hitc Mean.Spheroid.Nonburst.ISI: key: 1 (active); 0 (inactive); on hitc Mean.Spheroid.Spikes.per.Burst.per.Electrode: key: 1 (active); 0 (inactive); on hitc Mean.Spheroid.Spikes.per.Burst: key: 1 (active); 0 (inactive); on hitc Spheroid.Burst.Frequency: key: 1 (active); 0 (inactive); on hitc Spheroid.Spike.Amplitude.90th.Percentile: key: 1 (active); 0 (inactive)
Outline: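 7-week-differentiated BrainSpheres were plated on laminin/poly-D-lysine-coated HD-MEA chips and given 2 days to attach. Neural activity was recorded from the same regions of interest through a 13-day exposure, from day 0 onward. Ten network and general activity endpoints were derived per BrainSphere, with ≥3 biological replicates.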

[5] = AUC over 13-day exposure, tcplfit2
[6] = tcplfit2 BMD at benchmark response (1.349*SD of baseline controls)
[7] = tcplfit2 output ACC, activity cutoff in Supplemental Table 1
Wherever hitc CCTE Shafer MEA dev active electrodes number is given: key: 1 (active); 0 (inactive).
Wherever hitc CCTE Shafer MEA dev burst duration mean is given: key: 1 (active); 0 (inactive).
Wherever hitc CCTE Shafer MEA dev burst rate is given: key: 1 (active); 0 (inactive).
Wherever hitc CCTE Shafer MEA dev bursting electrodes number is given: key: 1 (active); 0 (inactive).
Wherever hitc CCTE Shafer MEA dev correlation coefficient mean is given: key: 1 (active); 0 (inactive).
Wherever hitc CCTE Shafer MEA dev firing rate mean is given: key: 1 (active); 0 (inactive).
Wherever hitc CCTE Shafer MEA dev inter network spike interval mean is given: key: 1 (active); 0 (inactive).
Wherever hitc CCTE Shafer MEA dev interburst interval mean is given: key: 1 (active); 0 (inactive).
Wherever hitc CCTE Shafer MEA dev mutual information norm is given: key: 1 (active); 0 (inactive).
Wherever hitc CCTE Shafer MEA dev network spike duration std is given: key: 1 (active); 0 (inactive).
Wherever hitc CCTE Shafer MEA dev network spike number is given: key: 1 (active); 0 (inactive).
Wherever hitc CCTE Shafer MEA dev network spike peak is given: key: 1 (active); 0 (inactive).
Wherever hitc CCTE Shafer MEA dev per burst interspike interval is given: key: 1 (active); 0 (inactive).
Wherever hitc CCTE Shafer MEA dev per burst spike percent is given: key: 1 (active); 0 (inactive).
Wherever hitc CCTE Shafer MEA dev per network spike spike number mean is given: key: 1 (active); 0 (inactive).
Wherever hitc CCTE Shafer MEA dev per network spike spike percent is given: key: 1 (active); 0 (inactive).
Wherever hitc CCTE Shafer MEA dev spike duration mean is given: key: 1 (active); 0 (inactive).

Compound: CC1(C)[C@H](C(=O)O[C@H](C#N)c2cccc(Oc3ccccc3)c2)[C@@H]1C=C(Br)Br [Deltamethrin]
- hitc CCTE_Shafer_MEA_dev_LDH (2D rat cortical cultures [1]): 0
- AC50 (2D rat cortical cultures [2]; aenm active_electrodes_number, read-out: ac50 CCTE_Shafer_MEA_dev_active_electrodes_number): 8.89 µM
- AC50 (2D rat cortical cultures [2]; aenm burst_duration_mean, read-out: ac50 CCTE_Shafer_MEA_dev_burst_duration_mean): 5.29 µM
- AC50 (2D rat cortical cultures [2]; aenm burst_rate, read-out: ac50 CCTE_Shafer_MEA_dev_burst_rate): 3.87 µM
- AC50 (2D rat cortical cultures [2]; aenm bursting_electrodes_number, read-out: ac50 CCTE_Shafer_MEA_dev_bursting_electrodes_number): 3.71 µM
- AC50 (2D rat cortical cultures [2]; aenm correlation_coefficient_mean, read-out: ac50 CCTE_Shafer_MEA_dev_correlation_coefficient_mean): 2.04 µM
- AC50 (2D rat cortical cultures [2]; aenm firing_rate_mean, read-out: ac50 CCTE_Shafer_MEA_dev_firing_rate_mean): 3.1 µM
- AC50 (2D rat cortical cultures [2]; aenm mutual_information_norm, read-out: ac50 CCTE_Shafer_MEA_dev_mutual_information_norm): 0.641 µM
- AC50 (2D rat cortical cultures [2]; aenm network_spike_duration_std, read-out: ac50 CCTE_Shafer_MEA_dev_network_spike_duration_std): 3.82 µM
- AC50 (2D rat cortical cultures [2]; aenm network_spike_number, read-out: ac50 CCTE_Shafer_MEA_dev_network_spike_number): 0.853 µM
- AC50 (2D rat cortical cultures [2]; aenm network_spike_peak, read-out: ac50 CCTE_Shafer_MEA_dev_network_spike_peak): 7.54 µM
- AC50 (2D rat cortical cultures [2]; aenm per_burst_interspike_interval, read-out: ac50 CCTE_Shafer_MEA_dev_per_burst_interspike_interval): 15 µM
- AC50 (2D rat cortical cultures [2]; aenm per_burst_spike_percent, read-out: ac50 CCTE_Shafer_MEA_dev_per_burst_spike_percent): 7.16 µM
- AC50 (2D rat cortical cultures [2]; aenm per_network_spike_spike_number_mean, read-out: ac50 CCTE_Shafer_MEA_dev_per_network_spike_spike_number_mean): 3.96 µM
- AC50 (2D rat cortical cultures [2]; aenm per_network_spike_spike_percent, read-out: ac50 CCTE_Shafer_MEA_dev_per_network_spike_spike_percent): 1.8 µM
- AC50 (2D rat cortical cultures [2]; aenm spike_duration_mean, read-out: ac50 CCTE_Shafer_MEA_dev_spike_duration_mean): 6.4 µM
- hitc CCTE_Shafer_MEA_dev_active_electrodes_number (2D rat cortical cultures [2]; rNFA mc5 hit call, aenm active_electrodes_number): 1
- hitc CCTE_Shafer_MEA_dev_burst_duration_mean (2D rat cortical cultures [2]; rNFA mc5 hit call, aenm burst_duration_mean): 1
- hitc CCTE_Shafer_MEA_dev_burst_rate (2D rat cortical cultures [2]; rNFA mc5 hit call, aenm burst_rate): 1
- hitc CCTE_Shafer_MEA_dev_bursting_electrodes_number (2D rat cortical cultures [2]; rNFA mc5 hit call, aenm bursting_electrodes_number): 1
- hitc CCTE_Shafer_MEA_dev_correlation_coefficient_mean (2D rat cortical cultures [2]; rNFA mc5 hit call, aenm correlation_coefficient_mean): 1
- hitc CCTE_Shafer_MEA_dev_firing_rate_mean (2D rat cortical cultures [2]; rNFA mc5 hit call, aenm firing_rate_mean): 1
- hitc CCTE_Shafer_MEA_dev_inter_network_spike_interval_mean (2D rat cortical cultures [2]; rNFA mc5 hit call, aenm inter_network_spike_interval_mean): 0
- hitc CCTE_Shafer_MEA_dev_interburst_interval_mean (2D rat cortical cultures [2]; rNFA mc5 hit call, aenm interburst_interval_mean): 0
- hitc CCTE_Shafer_MEA_dev_mutual_information_norm (2D rat cortical cultures [2]; rNFA mc5 hit call, aenm mutual_information_norm): 1
- hitc CCTE_Shafer_MEA_dev_network_spike_duration_std (2D rat cortical cultures [2]; rNFA mc5 hit call, aenm network_spike_duration_std): 1
- hitc CCTE_Shafer_MEA_dev_network_spike_number (2D rat cortical cultures [2]; rNFA mc5 hit call, aenm network_spike_number): 1
- hitc CCTE_Shafer_MEA_dev_network_spike_peak (2D rat cortical cultures [2]; rNFA mc5 hit call, aenm network_spike_peak): 1
- hitc CCTE_Shafer_MEA_dev_per_burst_interspike_interval (2D rat cortical cultures [2]; rNFA mc5 hit call, aenm per_burst_interspike_interval): 1
- hitc CCTE_Shafer_MEA_dev_per_burst_spike_percent (2D rat cortical cultures [2]; rNFA mc5 hit call, aenm per_burst_spike_percent): 1
- hitc CCTE_Shafer_MEA_dev_per_network_spike_spike_number_mean (2D rat cortical cultures [2]; rNFA mc5 hit call, aenm per_network_spike_spike_number_mean): 1
- hitc CCTE_Shafer_MEA_dev_per_network_spike_spike_percent (2D rat cortical cultures [2]; rNFA mc5 hit call, aenm per_network_spike_spike_percent): 1
- hitc CCTE_Shafer_MEA_dev_spike_duration_mean (2D rat cortical cultures [2]; rNFA mc5 hit call, aenm spike_duration_mean): 1
- hitc CCTE_Shafer_MEA_dev_AB (2D rat cortical cultures [3]): 0
- EC50 ([4]; 5th percentile across active AC50 values per chemical, read-out: Minimum potency): 1.6 µM
- Difference of minimum potency between BrainSphere MEA assay and rNFA ([4]; 5th percentile of AC50 values by chemical, above 0.5 = more potent in the rNFA): ≤ 0.5 log10 µM
- hitc Mean.Spheroid.Burst.Duration [4, 5]: 1
- hitc Mean.Spheroid.Burst.ISI [4, 5]: 1
- hitc Mean.Spheroid.Burst.Peak.Firing.Rate [4, 5]: 1
- hitc Mean.Spheroid.Firing.Rate [4, 5]: 1
- hitc Mean.Spheroid.IBI [4, 5]: 1
- hitc Mean.Spheroid.Nonburst.ISI [4, 5]: 1
- hitc Mean.Spheroid.Spikes.per.Burst [4, 5]: 1
- hitc Mean.Spheroid.Spikes.per.Burst.per.Electrode [4, 5]: 1
- hitc Spheroid.Burst.Frequency [4, 5]: 1
- hitc Spheroid.Spike.Amplitude.90th.Percentile [4, 5]: 1
- EC50 ([4]; Homo sapiens, 5th percentile across active AC50 values per chemical, read-out: Minimum potency): 1 µM
- EC (benchmark response 1.349 SD) ([4]; Homo sapiens, tcplfit2 BMD at benchmark response (1.349*SD of baseline controls), read-out: BMD Mean.Spheroid.Burst.ISI): 7.6 µM
- EC (benchmark response 1.349 SD) ([4]; Homo sapiens, tcplfit2 BMD at benchmark response (1.349*SD of baseline controls), read-out: BMD Mean.Spheroid.Nonburst.ISI): 9.4 µM
- AC50 ([4]; Homo sapiens, read-out: ac50 Mean.Spheroid.Burst.Duration): 3.3 µM
- AC50 ([4]; Homo sapiens, read-out: ac50 Mean.Spheroid.Burst.ISI): 8.4 µM
- AC50 ([4]; Homo sapiens, read-out: ac50 Mean.Spheroid.Burst.Peak.Firing.Rate): 3.8 µM
- AC50 ([4]; Homo sapiens, read-out: ac50 Mean.Spheroid.Firing.Rate): 3.5 µM
- AC50 ([4]; Homo sapiens, read-out: ac50 Mean.Spheroid.IBI): 10 µM
- AC50 ([4]; Homo sapiens, read-out: ac50 Mean.Spheroid.Nonburst.ISI): 9.8 µM
- AC50 ([4]; Homo sapiens, read-out: ac50 Mean.Spheroid.Spikes.per.Burst): 1.9 µM
- AC50 ([4]; Homo sapiens, read-out: ac50 Mean.Spheroid.Spikes.per.Burst.per.Electrode): 1.4 µM
- AC50 ([4]; Homo sapiens, read-out: ac50 Spheroid.Burst.Frequency): 5.9 µM
- AC50 ([4]; Homo sapiens, read-out: ac50 Spheroid.Spike.Amplitude.90th.Percentile): 4 µM
- EC50 ([4]; Homo sapiens, mean across active AC50 values per chemical, read-out: Mean potency): 4.45 µM
- AC50 ([4]; read-out: ac50 Mean.Spheroid.Burst.Duration): 3.31 µM
- AC50 ([4]; read-out: ac50 Mean.Spheroid.Burst.ISI): 8.39 µM
- AC50 ([4]; read-out: ac50 Mean.Spheroid.Burst.Peak.Firing.Rate): 3.77 µM
- AC50 ([4]; read-out: ac50 Mean.Spheroid.Firing.Rate): 3.49 µM
- AC50 ([4]; read-out: ac50 Mean.Spheroid.IBI): 10.4 µM
- AC50 ([4]; read-out: ac50 Mean.Spheroid.Nonburst.ISI): 9.81 µM
- AC50 ([4]; read-out: ac50 Mean.Spheroid.Spikes.per.Burst): 1.85 µM
- AC50 ([4]; read-out: ac50 Mean.Spheroid.Spikes.per.Burst.per.Electrode): 1.4 µM
- AC50 ([4]; read-out: ac50 Spheroid.Burst.Frequency): 5.88 µM
- AC50 ([4]; read-out: ac50 Spheroid.Spike.Amplitude.90th.Percentile): 3.97 µM
- EC50 ([4]; mean across active AC50 values per chemical, read-out: Mean potency): 5.23 µM
- Percent active ([4]; metrics active out of the total number of metrics screened): 100%
- BMD Mean.Spheroid.Burst.Duration [4, 6]: 1.9 µM
- BMD Mean.Spheroid.Burst.Peak.Firing.Rate [4, 6]: 2.4 µM
- BMD Mean.Spheroid.Firing.Rate [4, 6]: 3.6 µM
- BMD Mean.Spheroid.IBI [4, 6]: 9.6 µM
- BMD Mean.Spheroid.Spikes.per.Burst [4, 6]: 1.2 µM
- BMD Mean.Spheroid.Spikes.per.Burst.per.Electrode [4, 6]: 0.69 µM
- BMD Spheroid.Burst.Frequency [4, 6]: 6 µM
- BMD Spheroid.Spike.Amplitude.90th.Percentile [4, 6]: 1.6 µM
- ACC Mean.Spheroid.Burst.Duration [4, 7]: 1.7 µM
- ACC Mean.Spheroid.Burst.ISI [4, 7]: 7 µM
- ACC Mean.Spheroid.Burst.Peak.Firing.Rate [4, 7]: 2.2 µM
- ACC Mean.Spheroid.Firing.Rate [4, 7]: 5.2 µM
- ACC Mean.Spheroid.IBI [4, 7]: 10 µM
- ACC Mean.Spheroid.Nonburst.ISI [4, 7]: 9.6 µM
- ACC Mean.Spheroid.Spikes.per.Burst [4, 7]: 2 µM
- ACC Mean.Spheroid.Spikes.per.Burst.per.Electrode [4, 7]: 0.92 µM
- ACC Spheroid.Burst.Frequency [4, 7]: 5.1 µM
- ACC Spheroid.Spike.Amplitude.90th.Percentile [4, 7]: 2.2 µM
- Hits ([4]; total number of active endpoints out of 10 MEA activity metrics, 13-day exposure): 10
